Reference: ChEMBL document CHEMBL3867428, “Eremophilane Sesquiterpenes from an Endophytic Fungus Periconia Species” (J Nat Prod, 2016)

Columns and labels:
[1] = Cytotoxicity against human MCF7 cells assessed as reduction in cell viability after 96 hrs by MTT assay; assay type: functional, cell-based; details: MCF7, 96 h
[2] = Cytotoxicity against human HeLa cells assessed as reduction in cell viability after 96 hrs by MTT assay; assay type: functional, cell-based
[3] = Antiinflammatory activity in […] cells assessed as inhibition of LPS-induced NO production at 1 uM preincubated with compound followed by LPS stimulation after 24 hrs; assay type: functional; details: Mus musculus, BV-2
[4] = system: Human immunodeficiency virus 1; assay: Antiviral activity against VSV-G pseudotyped HIV1 infected in human SupT1 cells after 48 hrs by luciferase reporter gene assay; assay type: functional, cell-based; details: Human immunodeficiency virus 1, SUP-T1, 48 h

Structure (SMILES): C=C(C)[C@@]1(O)C[C@@]2(C)C(=C[C@@H]1O)C=CC(=O)[C@H]2C
- IC50 [1]: 17.9 µM

Structure (SMILES): CC(=O)O[C@H]1C(=O)[C@@]2(C)[C@H]([C@H](OC(=O)c3ccccc3)[C@]3(O)C[C@H](OC(=O)[C@H](O)[C@@H](NC(=O)c4ccccc4)c4ccccc4)C(C)=C1C3(C)C)[C@]1(OC(C)=O)CO[C@@H]1C[C@@H]2O [PACLITAXEL]
- IC50 [2]: 0.0064 µM
- IC50 [1]: 0.0002 µM

Structure (SMILES): COc1cc(/C=C/C(=O)CC(=O)/C=C/c2ccc(O)c(OC)c2)ccc1O [CURCUMIN]
- inhibition at 1 µM [3]: 12.9%

Structure (SMILES): C[C@H]1C(=O)C=CC2=C[C@@H](O)[C@H](O)C[C@@]21C
- IC50 [4]: 11 µM
- IC50 [2]: 16.5 µM

Structure (SMILES): C=C(C)[C@@H]1C[C@@]2(C)C(=C[C@@H](O)[C@H](O)[C@@H]2C)[C@@H](O)[C@H]1O
- inhibition at 1 µM [3]: 18.3%

Structure (SMILES): C=C(C)[C@]1(O)C[C@@]2(C)C(=C[C@H]1O)C=CC(=O)[C@@H]2C
- inhibition at 1 µM [3]: 10.2%

Structure (SMILES): C[C@@H]1C(=O)C=CC2=C[C@@H](O)[C@H](O)C[C@@]21C
- inhibition at 1 µM [3]: 16.1%
